Four compounds from US20250051340A1, “TRIAZOLONE DERIVATIVE SALT AS NEUTROPHIL ELASTASE INHIBITOR” (CHIESI FARMACEUTICI S.P.A., priority 2021, published 2025) can be followed below.

Like-named read-outs stand apart in the source and are kept apart here.

A short description of data set [1]: Solubility in water at RT. Format: physicochemical. As to the method: The complete dissolution of the material was visually observed.
A saturated solution of hemi-pamoate salt in water at RT was prepared, with a theoretical concentration of about 2 mg/ml. The solid in excess was filtered out and the content of the solution was quantified by LC/UV at different check points until 24 hours.

Data set [2] addresses T1, human neutrophil elastase (HNE) (Homo sapiens, UniProt P08246).
T1 sequence (P08246 30-267): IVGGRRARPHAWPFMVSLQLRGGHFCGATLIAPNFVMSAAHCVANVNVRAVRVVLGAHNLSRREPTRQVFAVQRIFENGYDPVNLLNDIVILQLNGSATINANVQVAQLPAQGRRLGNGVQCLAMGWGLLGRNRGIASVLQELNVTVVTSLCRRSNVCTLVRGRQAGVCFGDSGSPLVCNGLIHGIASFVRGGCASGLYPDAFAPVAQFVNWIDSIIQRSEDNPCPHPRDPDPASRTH
In words: HNE-induced lung injury assay (BAL fluid haemoglobin content). The conditions noted are these: i.t.; for % Inhibition of HNE-induced BAL fluid haemoglobin content at 3 μg/Kg / % Inhibition of HNE-induced BAL fluid haemoglobin content at 30 μg/Kg / % Inhibition of HNE-induced BAL fluid haemoglobin content at 300 μg/Kg: male Sprague Dawley rats, wet formulation, 3 h before HNE 100 U/rat, vs HNE-treated vehicle control. The class given is in vivo, rat. The protocol:
Then, one hour after the PBS or HNE administration animals were sacrificed and bronchoalveolar lavage (BAL) was performed in order to assess the HNE-induced lung injury measured as haemoglobin concentration. BAL fluid samples were centrifuged at 800 g for 15 min at 4° C. The supernatant was collected, and the pellet was re-suspended in 3 mL of distilled water. A standard curve with known volumes of lysated blood cells was made from a stem solution of lysated blood cells. 150 µL of standards and samples were transferred in duplicate to a 96-well plate and the OD measured at 412 nm. Percentage of compound efficacy (assessed as inhibition of HNE-induced haemoglobin content in BALF) was calculated following this formula: 100−[(mean of haemoglobin concentration of test compound treated rats exposed to HNE)−(mean of haemoglobin concentration of vehicle treated rats exposed to PBS)]/[(mean of haemoglobin concentration of vehicle treated rats exposed to HNE)−(mean of haemoglobin concentration of vehicle treated rats exposed to PBS)]×100.

The conditions of data set [3]: rat, in vivo.
Description: (§1) In addition, the effects of different (2-{5-Cyano-2-[(R)-6-methoxycarbonyl-7-methyl-3-oxo-8-(3-trifluoromethyl-phenyl)-2,3,5,8-tetrahydro-[1,2,4]triazolo[4,3-a]pyrimidin-5-yl]-phenyl}-ethyl)-trimethyl-ammonium salts on lung function parameters were also assessed in rats by head-out plethysmography in order to compare the potential local adverse effects of each salt of (2-{5-Cyano-2-[(R)-6-methoxycarbonyl-7-methyl-3-oxo-8-(3-trifluoromethyl-phenyl)-2,3,5,8-tetrahydro-[1,2,4]triazolo[4,3-a]pyrimidin-5-yl]-phenyl}-ethyl)-trimethyl-ammonium.
(§2) The duration of aerosol exposure was of 60 minutes. On the day of dosing, animals were placed into the plethysmograph tubes for at least 30 minutes prior to dosing and respiratory parameters: respiratory rate, tidal volume, and PenH were continuously recorded for at least 30 minutes pre-dose, 60 minutes during dosing (exposure) and 90 minutes post-exposure. The respiratory parameters were recorded every minute for a total period of 3 hours using the EMMS eDacq system (PLY231, EMMS, Bordon, United Kingdom).
Data set [4] is described as follows: Head-out plethysmography (HOP) assay, lung function parameters. The conditions noted are these: male Wistar rats, single snout-only inhalation, dry powder, 0.7 and 7 mg/kg, during or after dosing.
Description: as §1, §2
The mark [5] stands for this setting: thermodynamic from solid, read-out: Solubility.

The term solubility denotes how much of the substance goes into solution per volume. In data set [1] (methanesulfonate), `COC(=O)C1=C(C)N(c2cccc(C(F)(F)F)c2)c2n[nH]c(=O)n2[C@@H]1c1ccc(C#N)cc1CC[N+](C)(C)C.CS(=O)(=O)[O-]` [Methanesulfonate, (2-{5-Cyano-2-[(R)-6-methoxycarbonyl-7-methyl-3-oxo-8-(3-trifluoromethyl-Phenyl)-2,3,5,8-tetrahydro-[1,2,4]triazolo[4,3-a]Pyrimidin-5-yl]-phenyl}-ethyl)-trimethyl-ammonium methanesulfonate] registered a solubility greater than 200 mg/mL. Further, in data set [1] (setting [5]), the solubility is greater than 200 mg/mL. Moreover, the “% Inhibition of HNE-induced BAL fluid haemoglobin content at 3 μg/Kg” value in data set [2] was found to be 19%. The “% Inhibition of HNE-induced BAL fluid haemoglobin content at 30 μg/Kg” value in data set [2] (30 μg/kg) turned out to be 30%. For the same compound, in data set [2] (300 μg/kg), the “% Inhibition of HNE-induced BAL fluid haemoglobin content at 300 μg/Kg” value was 73%. Also, the “% of Reduction of tidal volume” value in data set [3] (male, Wistar) is 35-39%. In data set [3] (male, Wistar, 0.6 mg/kg), the “increase of PenH compared to vehicle” value was “about 8 fold”; the “increase of respiratory rate, peak effect” value came to 32%; the “reduction of tidal volume, peak effect” value stood at 35%. In data set [3] (male, Wistar, 6 mg/kg), the “increase of PenH compared to vehicle” value is roughly 16 fold; the “increase of respiratory rate, peak effect” value came to 54%; the “reduction of tidal volume, peak effect” value is recorded as 39%.
“(2-{5-Cyano-2-[(R)-6-methoxycarbonyl-7-methyl-3-oxo-8-(3-trifluoromethyl-phenyl)-2,3,5,8-tetrahydro-[1,2,4]triazolo[4,3-a]pyrimidin-5-yl]-phenyl}-ethyl)-trimethyl-ammonium hemi-pamoate”: the “effect on lung function parameters (respiratory rate, tidal volume, PenH)” value in data set [4] was “does not affect any lung function parameters”.
In the case of `COC(=O)C1=C(C)N(c2cccc(C(F)(F)F)c2)c2n[nH]c(=O)n2[C@@H]1c1ccc(C#N)cc1CC[N+](C)(C)C.[Br-]` [Bromide, (2-{5-Cyano-2-[(R)-6-methoxycarbonyl-7-methyl-3-oxo-8-(3-trifluoromethyl-phenyl)-2,3,5,8-tetrahydro-[1,2,4]triazolo[4,3-a]pyrimidin-5-yl]-phenyl}-ethyl)-trimethyl-ammonium bromide], the “% of Reduction of tidal volume” value in data set [3] (male, Wistar) was determined as 38%. In data set [3] (male, Wistar, 0.55 mg/kg), the “increase in PenH area compared to vehicle” value was “about 8 fold” and the “increase in respiratory rate, maximum effect” value is listed as 59%. Further, in data set [3] (male, Wistar, 5.5 mg/kg), the “increase in PenH area compared to vehicle” value was roughly 20 fold and the “reduction in tidal volume, maximum” value was found to be 38%.
Regarding `COC(=O)C1=C(C)N(c2cccc(C(F)(F)F)c2)c2n[nH]c(=O)n2[C@@H]1c1ccc(C#N)cc1CC[N+](C)(C)C` [Hemi-pamoate, (2-{5-Cyano-2-[(R)-6-methoxycarbonyl-7-methyl-3-oxo-8-(3-trifluoromethyl-phenyl)-2,3,5,8-tetrahydro-[1,2,4]triazolo[4,3-a]pyrimidin-5-yl]-phenyl}-ethyl)-trimethyl-ammonium hemi-pamoate], in data set [1] (setting [5]), the solubility amounted to 0.17 mg/mL. Besides, the “% Inhibition of HNE-induced BAL fluid haemoglobin content at 3 μg/Kg” value in data set [2] stood at 30%. Besides, the “% Inhibition of HNE-induced BAL fluid haemoglobin content at 30 μg/Kg” value in data set [2] (30 μg/kg) was determined as 43%. In addition, in data set [2] (300 μg/kg), the “% Inhibition of HNE-induced BAL fluid haemoglobin content at 300 μg/Kg” value amounted to 80%. Also, the “inhibition of BAL fluid haemoglobin levels, dry powder, 30 μg/kg” value in data set [2] (rats, dry powder formulation, 30 μg/kg, vs HNE-treated vehicle (lactose) control) came out at 4%. Besides, the “inhibition of BAL fluid haemoglobin levels, dry powder, 300 μg/kg” value in data set [2] (rats, dry powder formulation, 300 μg/kg, vs HNE-treated vehicle (lactose) control) turned out to be 54%. In addition, the “inhibition of BAL fluid haemoglobin levels, dry powder, 600 μg/kg” value in data set [2] (rats, dry powder formulation, 600 μg/kg, vs HNE-treated vehicle (lactose) control) came out at 60%. Besides, the “% of Reduction of tidal volume” value in data set [3] is “No variation of any lung function parameters”.
